# Assay results from article PMC10724293, “New ruthenium-xanthoxylin complex eliminates colorectal cancer stem cells by targeting the heat shock protein 90 chaperone” (Cell Death & Disease, 2023).
# What was measured:
# Type in all cases: cell-based, human
# HCT116 cells [1] = test: Trypan blue exclusion assay; conditions: 2.5, 5 and 10 μM; 24, 48 and 72 h
# Procedure: The trypan blue exclusion assay was used to quantify the number of viable cells. Briefly, 90 μl of the cell suspension plus 10 μl of trypan blue (0.4%) were mixed, and an aliquot was analyzed in a hemocytometer. The number of viable (unstained cells) and nonviable (trypan blue-stained cells) cells was counted using a light microscope.
# HCT116 cells [2] = test: Wound healing assay; conditions: 72 h, noncytotoxic concentrations
# Procedure: Wound healing assays were carried out as previously described, with some modifications. Cells were grown to 80–90% confluency in 12-well plates, and a wound was created by dragging a plastic pipette tip across the cell surface. The remaining cells were washed three times in saline to remove cell debris before being incubated in serum-free medium and treated with the drug. Using an optical microscope, migrating cells in front of the wound were photographed after 0 and 72 h of incubation (Nikon, TS 100). ImageJ software was used to calculate the wound area (NIH, USA).
# HCT116 cells [3] = test: Protein expression levels by flow cytometry; conditions: 10 μM, 24 h
# Procedure: Flow cytometry was used to measure protein expression levels using primary antibodies conjugated with specific fluorochromes, as detailed in Table S5. For intracellular protein staining, cells were collected and resuspended in 0.5–1 ml of 4% formaldehyde for 10 min at 37 °C. The tubes were then kept on ice for 1 min and permeabilized for 30 min on ice by slowly adding ice-cold 100% methanol to prechilled cells while gently vortexing to a final concentration of 90% methanol. After washing with incubation buffer (0.5% bovine serum albumin in PBS), antibodies were added and incubated at room temperature for 1 h. Finally, the cells were washed with PBS, and the fluorescence of the cells was measured using flow cytometry.
# For cell surface protein staining, cells were washed with incubation buffer (0.5% bovine serum albumin in PBS), and then antibodies were added and incubated for 1 h at room temperature. The cells were then washed with PBS, and cell fluorescence was measured using flow cytometry. To select viable cells for quantification of CD133-positive cells, YO-PRO-1 (Sigma-Aldrich Co.) was used.
# For all flow cytometry analyses, cell fluorescence was measured with a BD LSRFortessa cytometer and analyzed by BD FACSDiva Software (BD Biosciences) and FlowJo Software 10 (FlowJo LLC; Ashland, OR, USA). At least 10,000 events were evaluated per sample for intracellular staining, and at least 30,000 events were acquired per sample for cell surface protein staining. FSC-A versus FCS-H and SCC-A versus SCC-H were used to remove the doublets. The analysis excluded cellular debris.
substance,measurement,setting,value
cis-[Ru(phen)2(xant)](PF6) [RXC],number of viable cells,HCT116 cells [1],reduced the number of viable cells
same,cell migration,HCT116 cells [2],inhibited cell migration
same,E-cadherin expression,HCT116 cells [3],increased
same,LC3B expression,HCT116 cells [3],increased
same,expression level of 4EBP1 (pT36/pT45),HCT116 cells [3],decreased
same,expression level of Akt1,HCT116 cells [3],decreased
same,expression level of Akt (pS473),HCT116 cells [3],decreased
same,expression level of Akt (pT308),HCT116 cells [3],no change
same,expression level of GSK-3β (pS9),HCT116 cells [3],decreased
same,expression level of NF-κB p65 (pS529),HCT116 cells [3],decreased
same,expression level of PI3K p85/p55 (pT458/pT199),HCT116 cells [3],no change
same,expression level of S6 (pS235/pS236),HCT116 cells [3],no change
same,expression level of elF4E (pS209),HCT116 cells [3],no change
same,expression level of mTOR (pS2448),HCT116 cells [3],decreased
same,expression of Hsp90 protein,HCT116 cells [3],decreased
same,levels of PARP cleavage (Asp214),HCT116 cells [3],increased
same,p62/SQSTM1 expression,HCT116 cells [3],decreasing
same,vimentin expression,HCT116 cells [3],decreased
